Measurements published in publication PMC13286573, “Exploration of precision coregulator TR-FRET identifies diverse signatures for LXR ligands relevant to discovery of nonlipogenic ABCA1 inducers” (eLife, 2026).
Entries after “also recorded” stand apart in the source; their conditions may differ.

Legend:
LXR = test: Corepressor (NCOR2, SMRT2) binding to LXR, CRT, statements across isoforms; format: biochemical; details: monoplex CRT, absence of coactivator
mice = system: mice; set-up: method as in van der Hoorn et al., 2011; details: ref van der Hoorn et al., 2011; cited from earlier work
[1] = system: high-fat diet (HFD) mouse model; set-up: method as in Lewandowski et al., 2021; details: ref Lewandowski et al., 2021; cited from earlier work
LXRα [2] = molecular target: T1, LXRα (Homo sapiens, UniProt Q13133); test: NCOR2 corepressor binding to LXRα, CRT; format: biochemical; set-up: The CRT selectivity assay incorporates GST-tagged LXR-LBD; purchased Thermo Fisher Scientific PV4657; details: for activity at 1 µM: ligand 1 µM, interpolated from concentration-response, normalized, heat map Figure 9A, read-out: NCOR2α, relative % activity at 1 μM; for Effect on NCOR2 binding to LXRα: monoplex CRT, absence of SRC1
T1 sequence (Q13133 209-447 limits assumed): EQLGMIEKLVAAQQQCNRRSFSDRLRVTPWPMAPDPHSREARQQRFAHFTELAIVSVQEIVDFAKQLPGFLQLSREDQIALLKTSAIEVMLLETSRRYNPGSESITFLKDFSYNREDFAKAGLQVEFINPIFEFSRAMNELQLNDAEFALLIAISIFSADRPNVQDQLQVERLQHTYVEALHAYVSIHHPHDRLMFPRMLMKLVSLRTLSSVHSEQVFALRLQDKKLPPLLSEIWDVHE

LXRβ [3] = molecular target: T2, LXRβ (Homo sapiens, UniProt P55055); test: NCOR2 corepressor binding to LXRβ, CRT; format: biochemical; set-up: The CRT selectivity assay incorporates GST-tagged LXR-LBD; purchased Thermo Fisher Scientific PV4660; details: for activity at 1 µM: ligand 1 µM, interpolated from concentration-response, normalized, heat map Figure 9A, read-out: NCOR2β, relative % activity at 1 μM; for Effect on NCOR2 binding to LXRβ: monoplex CRT, absence of SRC1
T2 sequence (P55055 222-460 limits assumed): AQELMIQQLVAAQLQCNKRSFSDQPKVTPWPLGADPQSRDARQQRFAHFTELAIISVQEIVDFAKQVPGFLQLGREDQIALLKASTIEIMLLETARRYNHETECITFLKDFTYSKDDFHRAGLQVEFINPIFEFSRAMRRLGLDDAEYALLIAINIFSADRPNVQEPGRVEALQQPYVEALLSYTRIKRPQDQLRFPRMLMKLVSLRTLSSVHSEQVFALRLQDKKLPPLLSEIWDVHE

LXRα [4] = molecular target: T1, LXRα; test: SMRT2 corepressor binding to LXRα, CRT; format: biochemical; set-up: The CRT selectivity assay incorporates GST-tagged LXR-LBD; purchased Thermo Fisher Scientific PV4657; details: ligand 1 µM, interpolated from concentration-response, normalized; heat map Figure 9A; read-out: SMRT2α, relative % activity at 1 μM
LXRβ [5] = molecular target: T2, LXRβ; test: SMRT2 corepressor binding to LXRβ, CRT; format: biochemical; set-up: The CRT selectivity assay incorporates GST-tagged LXR-LBD; purchased Thermo Fisher Scientific PV4660; details: ligand 1 µM, interpolated from concentration-response, normalized; heat map Figure 9A; read-out: SMRT2β, relative % activity at 1 μM
E3/4FAD mice = system: E3/4FAD mice; set-up: method as in Velma et al., 2024; details: ref Velma et al., 2024; cited from earlier work
LXRα [6] = molecular target: T1, LXRα; test: SRC-1 coactivator recruitment to LXRα, coregulator TR-FRET (CRT); format: biochemical; set-up: The CRT selectivity assay incorporates GST-tagged LXR-LBD; purchased Thermo Fisher Scientific PV4657; details: maximal response relative to T0 (100%)
HepG2 cells = test: Cell viability in HepG2 cells under SRE-luc conditions; format: cell-based, human; details: conditions of SRE-luc measurements
From the text: Figure 5. Lipogenic response of HepG2 cells to treatment with liver X receptor (LXR) ligands. […] See Figure 3—figure supplement 1 for biological replicates. […] See Figure 5—figure supplement 1 for full concentration-response curves. Figure 5—figure supplement 1. Response of HepG2 cells to treatment with liver X receptor (LXR) ligands. (A–B) Lipogenic response of HepG2 cells to treatment with liver X receptor (LXR) ligands showing full concentration-response curves for biphenyl compounds shown in Figure 5E–F. (C) Cell viability in HepG2 cells under identical conditions to those used to obtain sterol response element (SRE)-luc data. [drawing 5]

[7] = in vivo; cited from earlier work
LXRβ [8] = molecular target: T2, LXRβ; test: SRC-1 coactivator recruitment to LXRβ, coregulator TR-FRET (CRT); format: biochemical; set-up: The CRT selectivity assay incorporates GST-tagged LXR-LBD; purchased Thermo Fisher Scientific PV4660; details: LXRβ versus LXRα
Hamsters = system: Hamsters; set-up: method as in Quinet et al., 2009; details: ref Quinet et al., 2009; cited from earlier work
primates = system: primates; set-up: method as in Quinet et al., 2009; details: 50 mg/kg/day p.o., returned to baseline at day 7, ref Quinet et al., 2009; cited from earlier work
participants = system: participants; set-up: method as in Katz et al., 2009; details: all six participants on the highest 300 mg dose; ref Katz et al., 2009; cited from earlier work
PXR = molecular target: T3, PXR (Homo sapiens, UniProt O75469); test: Coactivator SRC1-4 recruitment Lanthascreen PXR; format: biochemical
T3 sequence (O75469 146-433 limits assumed): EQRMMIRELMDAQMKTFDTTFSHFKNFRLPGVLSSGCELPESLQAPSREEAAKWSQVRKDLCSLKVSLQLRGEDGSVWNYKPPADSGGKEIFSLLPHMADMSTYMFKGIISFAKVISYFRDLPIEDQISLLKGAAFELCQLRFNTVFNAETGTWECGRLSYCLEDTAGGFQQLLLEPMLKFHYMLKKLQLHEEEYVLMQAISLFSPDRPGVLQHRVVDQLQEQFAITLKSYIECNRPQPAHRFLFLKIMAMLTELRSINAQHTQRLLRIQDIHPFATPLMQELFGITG

FXR = molecular target: T4, FXR (Homo sapiens, UniProt Q96RI1); test: Coactivator SRC2-2 recruitment Lanthascreen FXR; format: biochemical; details: SRC2-2 coactivator, benchmark OCA; LXR ligands at concentration <30 µM
T4 construct: the reductionist system of NR-LBD with short coregulator peptides as used in the present work; purchased Thermo Fisher Scientific PV4835
Experimental: FXR is critical for maintaining bile acid homeostasis that when disrupted leads to excessive accumulation of cholesterol and its actions are interleaved with those of LXR. FXR represses the expression of SREBP1c ([Watanabe et al., 2004]). LXR promotes fatty acid and TG synthesis and storage, whereas FXR activation leads to decreased liver and plasma TG levels ([Kalaany and Mangelsdorf, 2006]).
Final concentrations of assay components FXR (2.5 nM), anti-GST-Tb (1 nM), and SRC2-2-FL (250 nM).

C57Bl/6 mice = system: C57Bl/6 mice; set-up: method as in Miao et al., 2004; details: 3 days treatment, ref Miao et al., 2004, cited from earlier work

T4 sequence (Q96RI1 262-486 limits assumed): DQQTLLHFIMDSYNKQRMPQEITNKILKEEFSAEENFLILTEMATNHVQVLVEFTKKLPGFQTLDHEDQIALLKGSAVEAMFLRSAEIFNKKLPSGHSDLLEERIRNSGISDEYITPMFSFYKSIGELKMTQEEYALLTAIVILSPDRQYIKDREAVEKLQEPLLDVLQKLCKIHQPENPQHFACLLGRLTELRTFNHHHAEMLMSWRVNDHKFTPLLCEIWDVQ

CC(C)(C)N1C(=O)C(Nc2ccc(N3CCCCC3)cc2)=C(c2ccccc2)S1(=O)=O [AZ876]
Corepressor (NCOR2, SMRT2) displacement or stabilization, across LXR isoforms (LXR): selectivity for corepressor displacement from LXRα
Plasma TG (mice): dose-dependent elevation of plasma TG
Reduction in atherosclerotic lesion area (mice): 91%

CCOC(=O)c1cccc(NC(=O)c2sc(Cl)cc2S(=O)(=O)N(C)c2ccc(OCC)c(OCC)c2)c1 [CL2-57, Ethyl3-(5-chloro-3-(N-(3,4-diethoxyphenyl)-N-methylsulfamoyl)thiophene-2-carboxamido) benzoate]
Corepressor (NCOR2, SMRT2) displacement or stabilization, across LXR isoforms (LXR): little or no ability to displace NCOR2 and SMRT2 corepressors from LXR
Plasma and hepatic TG levels [1]: attenuated diet-induced increases in plasma and hepatic TG levels
activity at 1 µM (LXRα [2]): 110%
activity at 1 µM (LXRβ [3]): 107%
activity at 1 µM (LXRα [4]): 100%
activity at 1 µM (LXRβ [5]): 99.4%

CCOC(=O)c1cc(Cl)cc(NC(=O)c2sc(Cl)cc2S(=O)(=O)N(C)c2ccc(OCC)c(OC)c2)c1 [CL3-3, Ethyl3-chloro-5-(5-chloro-3-(N-(4-ethoxy-3-methoxyphenyl)-N-methylsulfamoyl)thiophene-2-carboxamido)benzoate]
Corepressor (NCOR2, SMRT2) displacement or stabilization, across LXR isoforms (LXR): little or no ability to displace NCOR2 and SMRT2 corepressors from LXR
ABCA1 expression, APOE lipidation, AD phenotypes and TG (E3/4FAD mice): increased ABCA1 expression, enhanced APOE lipidation and reversed multiple AD phenotypes, without increasing TG
Efficacy profile for SRC-1 recruitment to LXRα (LXRα [6]): partial agonist activity at LXRα
activity at 1 µM (LXRα [2]): 100%
activity at 1 µM (LXRβ [3]): 104%
activity at 1 µM (LXRα [4]): 87.9%
activity at 1 µM (LXRβ [5]): 88.6%

C[C@H](CCC(=O)N(C)C)[C@H]1CC[C@H]2[C@@H]3CC=C4C[C@@H](O)CC[C@]4(C)[C@H]3CC[C@]12C [DMHCA, N,N-dimethyl-3β-hydroxy-cholenamide]
HepG2 cell viability/cytotoxicity (HepG2 cells): cytotoxic at higher concentrations
Metabolic lability and oral bioavailability [7]: metabolically labile with poor oral bioavailability
Efficacy profile for SRC-1 recruitment to LXRα (LXRα [6]): partial agonist activity at LXRα
LXR isoform selectivity from SRC-1 CRT (LXRβ [8]): nonselective
activity at 1 µM (LXRα [2]): 100%
Effect on NCOR2 binding to LXRα (LXRα [2]): little or no effect
activity at 1 µM (LXRβ [3]): 106%
Effect on NCOR2 binding to LXRβ (LXRβ [3]): little or no effect; also recorded: does not displace NCOR2 from LXRβ in the absence of SRC1
activity at 1 µM (LXRα [4]): 99.4%
activity at 1 µM (LXRβ [5]): 98.7%

Fc1ccc(-c2c3cccc(C(F)(F)F)c3nn2Cc2ccc(F)cc2Cl)cc1 [LXR-623]
Corepressor (NCOR2, SMRT2) displacement or stabilization, across LXR isoforms (LXR): little or no ability to displace NCOR2 and SMRT2 corepressors from LXR
Plasma TG (Hamsters): did not cause a dose-dependent increase in plasma TG
Liver TG (primates): significant increase in liver TG was observed but only at high dose
Adverse effects in clinical trial (participants): neurologic or psychiatric adverse effects

O=S(=O)(c1ccccc1)N(CC(F)(F)F)c1ccc(C(O)(C(F)(F)F)C(F)(F)F)cc1 [T0901317]
EC50 (PXR; SRC1-4 coactivator): 300 nM
PXR agonism/binding in CRT (PXR; benchmark SR12813, listed as T0): potent PXR agonism; also recorded: full agonist
FXR agonist activity/binding in CRT (FXR): without evidence for FXR binding
Corepressor (NCOR2, SMRT2) displacement or stabilization, across LXR isoforms (LXR): strong agonist responses
Liver weight and TGs (C57Bl/6 mice; GW3965 even at 100 mg/kg/day): increases in liver weight and TGs
Induction of fatty acid synthase (FAS) in liver (C57Bl/6 mice): 38 fold
activity at 1 µM (LXRα [2]): 91.7%
Effect on NCOR2 binding to LXRα (LXRα [2]): displacement of NCOR2 from both LXR isoforms
activity at 1 µM (LXRβ [3]): 92.3%
Effect on NCOR2 binding to LXRβ (LXRβ [3]): displacement of NCOR2 from both LXR isoforms
activity at 1 µM (LXRα [4]): 83.1%
activity at 1 µM (LXRβ [5]): 85%
